Data on one compound can be found in US20110142799A1, “MODULATION OF NEURODEGENERATIVE DISEASE BY MODULATING XBP-1 ACTIVITY” (PRESIDENT AND FELLOWS OF HARVARD COLLEGE, priority 2008, published 2011).

SMILES strings stand for the structures.

Test [1] deals with mutant SOD1 aggregates in NSC34 cells. Briefly: High molecular weight, detergent insoluble SOD1 aggregates in NSC34 cells by Western blot. It is filed as cell-based, human. The following applies: shXBP-1 and shIRE-1 alpha NSC34 cells expressing SOD1^G85R; 16 h with 10 mM 3-MA or 10 μM wortmannin. An excerpt: Stable motoneuron cell lines with reduced levels of XBP-1, IRE1α, Beclin-1 and EDEM were generated using methods previously described (Hetz et al., 2007) by targeting the respective mRNA with shRNA using the lentiviral expression vector pLKO.1 and puromycin selection. As control empty vector or a shRNA against the luciferase gene were employed. Constructs were generated by The Broad Institute (Boston, USA) based on different criteria for shRNA design (see broad.mit.edu/genome_bio/trc/rnai.html). A total of five different constructs for each gene were screened and the most efficient one was selected for further studies. Targeting sequences identified for the mouse XBP-1, IRE1α, Beclin-1 and EDEM mRNA are 5′-[…]-3′,5′-[…]-3′,5′-[…]-3′,5′-[…]-3′,5′-[…]-3′,5′-[…]-3′, 5′-[…]-3′ and 5′-[…]-3′, respectively. […]
Assays using the transient expression of human SOD1^WT and the mutants SOD1^G93A and SOD1^G85R as EGFP fusion proteins were developed. These constructs were employed to visualize and quantify the formation of intracellular SOD1 inclusions in living cells by fluorescent confocal microscopy. […] SOD1 oligomers were visualized in total cell extracts prepared in RIPA buffer and sonication, and then analyzed by Western blot. […]

Test [2] concerns autophagosomes in NSC34 cells. Briefly: Autophagosome number (LC3-EGFP dots, electron microscopy) in NSC34 cells. The following applies: shXBP-1 cells, 16 h with 10 mM 3-MA. The format is cell-based. The protocol: Lysosomes or acidic compartments were visualized with two different assays. Living cells were stained with 200 nM lysotraker or 600 nM Acridine orange for 45 min at 37 C and 5% CO2. Cells were washed three times with cold PBS and then fixed for 30 min with 4% formaldehyde on ice, then maintained in PBS containing 0.4% formaldehyde for visualization on a confocal microscope. Autophagosomes were visualized after the expression of LC3-EGFP (Kabeya et al., 2000. EMBO J. 19, 5720-5728) or LC3-dsRED after the transient transfection of low amount of DNA (⅓ amount of recommended concentrations by transfection kit). As control experiments, cells were treated with 10 mM 3-MA autophagy inhibitor. All quantifications were performed at least in a total of 150 cells performed in duplicate for each independent experiment.
Autophagosomes were also visualized by transmission electron microscopy. Cells were fixed with 1.25% formaldehyde, 2.5% glutaraldehyde, 0.03% picric acid in 100 mM sodium cacodylate buffer. After washing with 100 mM sodium cacodylate buffer, tissues were treated for 1 h with 1% osmium tetroxide and 1.5% potassium ferrocyanide, and then 30 min with 0.5% uranyl acetate in 50 mM maleate buffer, pH 5.15. After dehydration in ethanol, cells were treated for 1 h in propylenoxide and then embedded in Epon/Araldite resin. […]

Regarding `Cn1cnc(N)c2ncnc1-2` [3-MA, 3-methyladenine], in test [1], the “SOD1 aggregation after PI3-kinase / autophagy inhibitor” value is given as “recovery of mutant SOD1 aggregation in knockdown cells”. For the same compound, the “number of cells containing more than four autophagosomes per cell after 3-MA” value in test [2] is listed as “decreased”.
